Structures can show the parent of a compound that is named as a salt.
Legend:
[1] = target: rhIDO (recombinant human IDO) (Homo sapiens, UniProt P14902); assay: Enzyme assay using rhIDO (rate of kynurenine production); format: biochemical; details: 2 h; final concentration of the compound 10 μM; rate relative to reaction without compound; read-out: rhIDO-mediated kynurenine production
Method in brief: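 Kynurenine formation, expressed as % of uncompounded reaction after background subtraction, was read by absorbance at 490 nm following TCA stop, 50 °C hydrolysis and Ehrlich-type p-dimethylbenzaldehyde staining. Recombinant human IDO with ascorbate/methylene blue/catalase was pre-exposed to compound 10 min, then reacted 120 min at 37 °C after adding 2 mM tryptophan stock.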

[2] = target: rhTDO (recombinant human TDO) (Homo sapiens, UniProt P48775); assay: Enzyme assay using rhTDO (rate of kynurenine production); format: biochemical; details: 2 h; final concentration of the compound 10 μM; rate relative to reaction without compound; read-out: rhTDO-mediated kynurenine production
Method in brief: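 Kynurenine output, as percent of untreated control after background subtraction, read at 490 nm with p-dimethylbenzaldehyde following TCA quench and 15 min heating at 50 °C. Reaction: rhTDO with compound, 10 min preincubation then 120 min at 37 °C, started by 20 mM tryptophan stock, in phosphate/ascorbate/methylene blue/catalase.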

IDO in A431 cells = target: T1, IDO in A431 cells (Homo sapiens, UniProt P14902); assay: IDO cell-based assay, kynurenine production in IFN-γ stimulated A431 cells; details: A-431, 24 h; final concentration of the compound 10 μM; rate relative to culture without compound
T1 construct: endogenous in cells; host or cells: A431 cells, IFN-γ stimulated
Method in brief: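 Kynurenine output was read by absorbance at 460 nm after p-dimethylbenzaldehyde/trichloroacetic acid reagent, background-corrected, and given as % of untreated wells. Before the read, cells in 178 μM L-tryptophan medium had 1 h compound preincubation, then 24 h IFN-γ stimulation (added as 100 ng/mL dilution).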

TDO in A172 cells = target: T2, TDO in A172 cells (Homo sapiens, UniProt P48775); assay: TDO cell-based assay, kynurenine production in A172 cells; details: A 172; final concentration of the compound 10 μM; rate relative to culture without compound
T2 construct: endogenous in cells; host or cells: A172 cells
Method in brief: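 A172 cells were preincubated with compound for 1 h, then given L-tryptophan (final 524 μM) for 24 h at 37 °C. Kynurenine was read at 460 nm after p-dimethylbenzaldehyde/TCA reagent, background-subtracted, and expressed as % of no-compound production.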

Sequence of rhTDO (recombinant human TDO) (P48775 whole entry): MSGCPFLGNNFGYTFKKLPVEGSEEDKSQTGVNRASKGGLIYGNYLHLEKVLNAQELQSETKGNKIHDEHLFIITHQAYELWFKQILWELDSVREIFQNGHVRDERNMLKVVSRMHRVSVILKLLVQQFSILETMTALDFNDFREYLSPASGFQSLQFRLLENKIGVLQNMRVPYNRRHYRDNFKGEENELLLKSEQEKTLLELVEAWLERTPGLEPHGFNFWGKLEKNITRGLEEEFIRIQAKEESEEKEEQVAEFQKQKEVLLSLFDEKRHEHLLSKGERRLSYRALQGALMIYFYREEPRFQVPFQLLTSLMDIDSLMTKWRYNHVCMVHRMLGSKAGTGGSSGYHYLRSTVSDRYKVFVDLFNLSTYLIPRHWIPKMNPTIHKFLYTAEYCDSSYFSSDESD
T2 sequence (P48775 whole entry): as above
Sequence of rhIDO (recombinant human IDO) (P14902 whole entry): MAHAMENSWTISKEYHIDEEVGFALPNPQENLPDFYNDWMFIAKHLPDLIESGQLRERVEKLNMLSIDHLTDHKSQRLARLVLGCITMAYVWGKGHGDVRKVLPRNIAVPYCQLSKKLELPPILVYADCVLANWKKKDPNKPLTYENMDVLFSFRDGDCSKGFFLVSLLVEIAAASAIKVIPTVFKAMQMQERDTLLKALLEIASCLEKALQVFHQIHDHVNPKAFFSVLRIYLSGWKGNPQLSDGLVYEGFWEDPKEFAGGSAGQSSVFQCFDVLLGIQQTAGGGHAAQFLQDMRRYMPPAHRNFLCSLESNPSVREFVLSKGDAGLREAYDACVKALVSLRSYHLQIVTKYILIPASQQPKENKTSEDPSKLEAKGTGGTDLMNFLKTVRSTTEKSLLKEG
T1 sequence (P14902 whole entry): as above

## N=C(N)SCc1cc(Br)ccc1C(=O)NCC1CCCCC1 [Compound 74, 5-Bromo-2-((cyclohexylmethyl)carbamoyl)benzyl carbamimidothioate hydrobromide]
[1]
  remaining activity at 10 µM: 70%
[2]
  remaining activity at 10 µM: 29%
IDO in A431 cells
  remaining activity at 10 µM: 75%
TDO in A172 cells
  remaining activity at 10 µM: 47%

## Brc1ccc(CSC2=NCN(CC3CC3)CN2)c(CSC2=NCN(CC3CC3)CN2)c1 [Compound 75, 6,6′-(((4-Bromo-1,2-phenylene)bis(methylene))bis(sulfanediyl))bis(3-(cyclopropylmethyl)-1,2,3,4-tetrahydro-1,3,5-triazine)]
[1]
  remaining activity at 10 µM: 35%
[2]
  remaining activity at 10 µM: 15%
IDO in A431 cells
  remaining activity at 10 µM: 9%
TDO in A172 cells
  remaining activity at 10 µM: 3%

## CNC(=O)c1ccc(C#N)cc1CSC(=N)N [Compound 77, 5-Cyano-2-(methylcarbamoyl)benzyl carbamimidothioate hydrobromide]
[1]
  remaining activity at 10 µM: 74%
[2]
  remaining activity at 10 µM: 101%
IDO in A431 cells
  remaining activity at 10 µM: 103%
TDO in A172 cells
  remaining activity at 10 µM: 89%

## N=C(N)SCc1cc(Br)ccc1C(=O)NCCc1ccc(Cl)cc1 [Compound 78, 5-Bromo-2-((4-chlorophenethyl)carbamoyl)benzyl carbamimidothioate hydrobromide]
[1]
  remaining activity at 10 µM: 74%
[2]
  remaining activity at 10 µM: 25%
IDO in A431 cells
  remaining activity at 10 µM: 112%
TDO in A172 cells
  remaining activity at 10 µM: 56%

## CNC(=O)Cc1ccccc1CS/C(N)=N/c1ccc(Br)cc1 [Compound 79, 2-(2-(Methylamino)-2-oxoethyl)benzyl (E)-N′-(4-bromophenyl)carbamimidothioate hydrobromide]
[1]
  remaining activity at 10 µM: 90%
[2]
  remaining activity at 10 µM: 34%
IDO in A431 cells
  remaining activity at 10 µM: 60%
TDO in A172 cells
  remaining activity at 10 µM: 38%

## CNC(=O)Cc1ccccc1CS/C(N)=N/c1ccc(F)c(Cl)c1 [Compound 80, 2-(2-(Methylamino)-2-oxoethyl)benzyl (E)-N′-(3-chloro-4-fluorophenyl)carbamimidothioate hydrobromide]
[1]
  remaining activity at 10 µM: 97%
[2]
  remaining activity at 10 µM: 38%
IDO in A431 cells
  remaining activity at 10 µM: 66%
TDO in A172 cells
  remaining activity at 10 µM: 45%

## CNC(=O)c1ccc(C#N)cc1CS/C(N)=N/c1ccc(Br)cc1 [Compound 81, 5-Cyano-2-(methylcarbamoyl)benzyl (E)-N′-(4-bromophenyl)carbamimidothioate hydrobromide]
[1]
  remaining activity at 10 µM: 81%
[2]
  remaining activity at 10 µM: 121%
IDO in A431 cells
  remaining activity at 10 µM: 78%
TDO in A172 cells
  remaining activity at 10 µM: 89%

## N=C(N)SCc1cc(Br)ccc1C(=O)NCc1ccc(Cl)cc1 [Compound 82, 5-Bromo-2-((4-chlorobenzyl)carbamoyl)benzyl carbamimidothioate hydrobromide]
[1]
  remaining activity at 10 µM: 89%
[2]
  remaining activity at 10 µM: 27%
IDO in A431 cells
  remaining activity at 10 µM: 99%
TDO in A172 cells
  remaining activity at 10 µM: 37%

## N/C(=N\c1ccc(F)c(Cl)c1)SCc1cc(Br)ccc1C(=O)NCc1ccc(Cl)cc1 [Compound 83, 5-Bromo-2-((4-chlorobenzyl)carbamoyl)benzyl (E)-N′-(3-chloro-4-fluorophenyl)carbamimidothioate hydrobromide]
[1]
  remaining activity at 10 µM: 80%
[2]
  remaining activity at 10 µM: 59%
IDO in A431 cells
  remaining activity at 10 µM: 75%
TDO in A172 cells
  remaining activity at 10 µM: 21%

## N/C(=N\c1ccc(Br)cc1)SCc1cc(Br)ccc1C(=O)NCc1ccc(Cl)cc1 [Compound 84, 5-Bromo-2-((4-chlorobenzyl)carbamoyl)benzyl (E)-N′-(4-bromophenyl)carbamimidothioate hydrobromide]
[1]
  remaining activity at 10 µM: 84%
[2]
  remaining activity at 10 µM: 65%
IDO in A431 cells
  remaining activity at 10 µM: 56%
TDO in A172 cells
  remaining activity at 10 µM: 18%

## N#Cc1ccc(CNC(=O)c2ccc(Br)cc2CS/C(N)=N/c2ccc(F)c(Cl)c2)cc1 [Compound 85, 5-Bromo-2-((4-cyanobenzyl)carbamoyl)benzyl (E)-N′-(3-chloro-4-fluorophenyl)carbamimidothioate hydrobromide]
[1]
  remaining activity at 10 µM: 71%
[2]
  remaining activity at 10 µM: 50%
IDO in A431 cells
  remaining activity at 10 µM: 56%
TDO in A172 cells
  remaining activity at 10 µM: 16%

## N=C(N)SCc1cc(Br)ccc1C(=O)NCc1ccc(F)cc1 [Compound 86, 5-Bromo-2-((4-fluorobenzyl)carbamoyl)benzyl carbamimidothioate hydrobromide]
[1]
  remaining activity at 10 µM: 92%
[2]
  remaining activity at 10 µM: 46%
IDO in A431 cells
  remaining activity at 10 µM: 109%
TDO in A172 cells
  remaining activity at 10 µM: 36%

## N#Cc1ccc(CNC(=O)c2ccc(Br)cc2CS/C(N)=N/c2ccc(Br)cc2)cc1 [Compound 87, 5-Bromo-2-((4-cyanobenzyl)carbamoyl)benzyl (E)-N′-(4-bromophenyl)carbamimidothioate hydrobromide]
[1]
  remaining activity at 10 µM: 75%
[2]
  remaining activity at 10 µM: 51%
IDO in A431 cells
  remaining activity at 10 µM: 67%
TDO in A172 cells
  remaining activity at 10 µM: 13%

## N/C(=N\c1ccc(F)c(Cl)c1)SCc1cc(Br)ccc1C(=O)NCc1ccc(F)cc1 [Compound 88, 5-Bromo-2-((4-fluorobenzyl)carbamoyl)benzyl (E)-N′-(3-chloro-4-fluorophenyl)carbamimidothioate hydrobromide]
[1]
  remaining activity at 10 µM: 82%
[2]
  remaining activity at 10 µM: 92%
IDO in A431 cells
  remaining activity at 10 µM: 64%
TDO in A172 cells
  remaining activity at 10 µM: 28%

## N=C(N)SCc1cc(Br)ccc1C(=O)NCc1ccc(Cl)cc1Cl [Compound 89, 5-Bromo-2-((2,4-dichlorobenzyl)carbamoyl)benzyl carbamimidothioate hydrobromide]
[1]
  remaining activity at 10 µM: 81%
[2]
  remaining activity at 10 µM: 12%
IDO in A431 cells
  remaining activity at 10 µM: 122%
TDO in A172 cells
  remaining activity at 10 µM: 51%

## Cc1ccc(CNC(=O)c2ccc(Br)cc2CSC(=N)N)cc1 [Compound 90, 5-Bromo-2-((4-methylbenzyl)carbamoyl)benzyl carbamimidothioate hydrobromide]
[1]
  remaining activity at 10 µM: 90%
[2]
  remaining activity at 10 µM: 45%
IDO in A431 cells
  remaining activity at 10 µM: 96%
TDO in A172 cells
  remaining activity at 10 µM: 51%

## Cc1ccc(CNC(=O)c2ccc(Br)cc2CS/C(N)=N/c2ccc(F)c(Cl)c2)cc1 [Compound 91, 5-Bromo-2-((4-methylbenzyl)carbamoyl)benzyl (E)-N′-(3-chloro-4-fluorophenyl)carbamimidothioate hydrobromide]
[1]
  remaining activity at 10 µM: 78%
[2]
  remaining activity at 10 µM: 103%
IDO in A431 cells
  remaining activity at 10 µM: 51%
TDO in A172 cells
  remaining activity at 10 µM: 26%

## CNC(=O)c1ccccc1CSC(=N)N [Compound 92, 2-(Methylcarbamoyl)benzyl carbamimidothioate hydrobromide]
[1]
  remaining activity at 10 µM: 90%
[2]
  remaining activity at 10 µM: 68%
IDO in A431 cells
  remaining activity at 10 µM: 112%
TDO in A172 cells
  remaining activity at 10 µM: 81%

## N=C(N)SCc1cc(Br)ccc1C(=O)NCC1CC1 [Compound 93, 5-Bromo-2-((cyclopropylmethyl)carbamoyl)benzyl carbamimidothioate hydrobromide]
[1]
  remaining activity at 10 µM: 103%
[2]
  remaining activity at 10 µM: 53%
IDO in A431 cells
  remaining activity at 10 µM: 124%
TDO in A172 cells
  remaining activity at 10 µM: 49%

## N=C(N)SCc1cc(Br)ccc1C(=O)NCc1ccc(Cl)c(Cl)c1 [Compound 94, 5-Bromo-2-((3,4-dichlorobenzyl)carbamoyl)benzyl carbamimidothioate hydrobromide]
[1]
  remaining activity at 10 µM: 80%
[2]
  remaining activity at 10 µM: 15%
IDO in A431 cells
  remaining activity at 10 µM: 158%
TDO in A172 cells
  remaining activity at 10 µM: 59%

## N#Cc1ccc(CNC(=O)c2ccccc2CSC(=N)N)cc1 [Compound 96, 2-((4-Cyanobenzyl)carbamoyl)benzyl carbamimidothioate hydrobromide]
[1]
  remaining activity at 10 µM: 71%
[2]
  remaining activity at 10 µM: 26%
IDO in A431 cells
  remaining activity at 10 µM: 93%
TDO in A172 cells
  remaining activity at 10 µM: 38%

## N=C(N)SCc1cc(Br)ccc1C(=O)NCc1ccc(Br)cc1 [Compound 97, 5-Bromo-2-((4-bromobenzyl)carbamoyl)benzyl carbamimidothioate hydrobromide]
[1]
  remaining activity at 10 µM: 85%
[2]
  remaining activity at 10 µM: 16%
IDO in A431 cells
  remaining activity at 10 µM: 83%
TDO in A172 cells
  remaining activity at 10 µM: 37%

## CNC(=O)c1ncccc1CSC(=N)N [Compound 98, (2-(Methylcarbamoyl)pyridin-3-yl)methyl carbamimidothioate hydrobromide]
[1]
  remaining activity at 10 µM: 95%
[2]
  remaining activity at 10 µM: 91%
IDO in A431 cells
  remaining activity at 10 µM: 107%
TDO in A172 cells
  remaining activity at 10 µM: 133%

## N#Cc1ccc(CNC(=O)c2ncccc2CSC(=N)N)cc1 [Compound 99, (2-((4-Cyanobenzyl)carbamoyl)pyridin-3-yl)methyl carbamimidothioate hydrobromide]
[1]
  remaining activity at 10 µM: 96%
[2]
  remaining activity at 10 µM: 75%
IDO in A431 cells
  remaining activity at 10 µM: 102%
TDO in A172 cells
  remaining activity at 10 µM: 106%

## CNC(=O)c1cccnc1CSC(=N)N [Compound 100, (3-(Methylcarbamoyl)pyridin-2-yl)methyl carbamimidothioate hydrobromide]
[1]
  remaining activity at 10 µM: 88%
[2]
  remaining activity at 10 µM: 84%
IDO in A431 cells
  remaining activity at 10 µM: 93%
TDO in A172 cells
  remaining activity at 10 µM: 123%
